Measurements from patent US4021557A, “11-Aminoalkyl-pyridobenzodiazepinones and salts thereof” (Boehringer Ingelheim GmbH, priority 1974, dated 1977).

Assays:
[1] = system: acetylcholine-induced bronchospasm; assay: Antagonism to acetylcholine-provoked bronchospasm in anesthetized guinea pigs (Konzett and Rossler), i.v.; antiasthmatic / bronchospasmolytic activity; format: in vivo; conditions: guinea pig; for ED50: Cavia porcellus, iv, 20γ acetylcholine per kg i.v., graphic extrapolation, read-out: Bronchospasmolytic ED50 against acetylcholine-induced bronchospasm
Procedure: The antiasthmatic activity was tested as the antagonism to bronchospasm provoked by intravenous administration of 20γ of acetylcholine per kg body weight in anesthetized guinea pigs (according to method of Konzett and Rossler). From the average percentage decrease of the bronchospasm produced by administering various doses of the compounds of the […] invention an ED50 was determined by graphic extrapolation. The compounds were administered intravenously.

[2] = Acute toxicity after i.v. administration in NMRI-mice (Litchfield and Wilcoxon); conditions: mouse, in vivo, iv, both sexes, deaths within 14 days, read-out: LD50 in the mouse after i.v. application
Procedure: The acute toxicity was determined with NMRI-mice of both sexes (body weight 20 gm) after intravenous administration of the compound. 0.1 ml of a 0.9% sodium chloride solution per 10gm of animal was used as the vehicle.

heart rate = assay: Effect on heart rate of the anesthetized cat after intravenous administration; format: in vivo; design: key to type of the reaction (heart rate): --: decrease in heart rate; conditions: i.v.; for ED10 (dose leading to a 10% alteration of the heart rate) / ED25 (dose leading to a 25% alteration of the heart rate): graphic extrapolation; for type of the reaction (heart rate): tested dosage range 250 - 4,000 γ/kg (A 12.5 - 16,000; W 125 - 4,000)
Procedure: The effect on the heart rate was tested on cats of both sexes (body weight between 2.3 and 3.5 kg) under chloralose-urethane anesthesia. The heart rate was continuously registered by means of a Grass-tachograph 7P4, controlled by the R-wave of the electrocardiogram. The test compound was injected through a catheter introduced into the vena femoralis.

quantity of secretion = assay: Expectorant (secretolytic) activity in anesthetized guinea pigs (Perry et al, modified by Engelhorn et al), oral; format: in vivo; conditions: guinea pig, dose 0.5 γ/kg, over 2 hours
Procedure: The expectorant activity was ascertained by the method of Perry et al, J. Pharmcol. exp. Therap. 73, 65 (1941), as modified by Engelhorn et al, Arzneim. Forsch. 21, 1045 (1971), on male guinea pigs (body weight from 450 to 550 gm), which has been anesthetized by intraperitoneal injection of a 25% urethane solution (1.0 gm/kg). The test compound was administered orally at the indicated dosage levels, each in 2 ml of distilled water, by means of an esophageal tube. 5 tests per dose. The increase in secretion was calculated from the quantity of fluid secreted over a period of 2 hours after administration of the test compound, as compared to the quantity secreted without administration of the test compound.

CCN(CCCN1c2ccccc2N(C)C(=O)c2cccnc21)C(C)C.Cl [K, 11-[3'-(n-ethyl-N-isopropyl-amino)-n-propyl]-6,11-dihydro-6-methyl-5H-pyrido[2,3-b][1,5]benzodiazepin-5-one hydrochloride]
ED50 [1]: 0.02 mg/kg | Average duration of effective action in the ED50 range [1]: > 80 min | LD50 at 336 h [2]: 30 mg/kg | ED10 (dose leading to a 10% alteration of the heart rate) (heart rate): 1,350 γ/kg | ED25 (dose leading to a 25% alteration of the heart rate) (heart rate): > 4,000 γ/kg | type of the reaction (heart rate) (heart rate): -- | percent change in quantity of secretion (increase) (quantity of secretion): 113%

CCCN(CCC)CCCN1c2ccccc2N(C)C(=O)c2cccnc21.Cl [H, 6,11-dihydro-11-(3'-di-n-propylamino-n-propyl)-6-methyl-5H-pyrido[2,3-b][1,5]benzodiazepin-5-one hydrochloride]
ED50 [1]: 0.095 mg/kg | Average duration of effective action in the ED50 range [1]: > 70 min | LD50 at 336 h [2]: 21.7 mg/kg

CN(C)CCN1c2ccccc2N(C)C(=O)c2cccnc21.Cl [B, 6,11-dihydro-11-(2'-dimethylamino-ethyl)-6-methyl-5H-pyrido[2,3-b][1,5]benzodiazepin-5-one hydrochloride]
ED50 [1]: 0.148 mg/kg | Average duration of effective action in the ED50 range [1]: > 110 min | LD50 at 336 h [2]: 25.8 mg/kg

CN(C)CCCN1c2ccccc2N(C)C(=O)c2cccnc21.Cl [C, 6,11-dihydro-11-(3'-dimethylamino-n-propyl)-6-methyl-5H-pyrido[2,3-b][1,5]benzodiazepin-5-one hydrochloride]
ED50 [1]: 0.081 mg/kg | Average duration of effective action in the ED50 range [1]: > 60 min | LD50 at 336 h [2]: 30.7 mg/kg | ED10 (dose leading to a 10% alteration of the heart rate) (heart rate): > 4,000 γ/kg | type of the reaction (heart rate) (heart rate): --

CCNCCCN1c2ccccc2N(C)C(=O)c2cccnc21.Cl [E, 11-(3'-ethylamino-n-propyl)-6,11-dihydro-6-methyl-5H-pyrido[2,3-b][1,5]benzodiazepin-5-one hydrochloride]
ED50 [1]: 0.068 mg/kg | Average duration of effective action in the ED50 range [1]: > 90 min | LD50 at 336 h [2]: 56.1 mg/kg | ED10 (dose leading to a 10% alteration of the heart rate) (heart rate): 1,050 γ/kg | ED25 (dose leading to a 25% alteration of the heart rate) (heart rate): > 4,000 γ/kg | type of the reaction (heart rate) (heart rate): --

CN1C(=O)c2cccnc2N(CCCN2CCCCC2)c2ccccc21.Cl [M, 6,11-dihydro-6-methyl-11-(3'-piperidino-n-propyl)-5H-pyrido[2,3-b][1,5]benzodiazepin-5-one hydrochloride]
ED50 [1]: 0.063 mg/kg | Average duration of effective action in the ED50 range [1]: > 60 min | LD50 at 336 h [2]: 10.6 mg/kg | ED10 (dose leading to a 10% alteration of the heart rate) (heart rate): 1,400 γ/kg | ED25 (dose leading to a 25% alteration of the heart rate) (heart rate): > 4,000 γ/kg | type of the reaction (heart rate) (heart rate): --

CN1C(=O)c2ccccc2N(CCCN2CCCC2)c2ncccc21.Cl [U, 5,11-dihydro-5-methyl-11-(3-pyrrolidino-n-propyl)-6H-pyrido[2,3-b][1,4]benzodiazepin-6-one hydrochloride]
ED50 [1]: 0.105 mg/kg | Average duration of effective action in the ED50 range [1]: > 50 min | LD50 at 336 h [2]: 22.9 mg/kg | ED10 (dose leading to a 10% alteration of the heart rate) (heart rate): 2,300 γ/kg | ED25 (dose leading to a 25% alteration of the heart rate) (heart rate): > 4,000 γ/kg | type of the reaction (heart rate) (heart rate): --

CC(C)N(CCN1c2ccccc2C(=O)N(C)c2cccnc21)C(C)C.Cl [Q, 5,11-dihydro-11-(2'-diisopropylamino-ethyl)-5-methyl-6H-pyrido[2,3-b][1,4]benzodiazepin-6-one hydrochloride]
ED50 [1]: 0.053 mg/kg | Average duration of effective action in the ED50 range [1]: > 50 min | LD50 at 336 h [2]: 27 mg/kg

CC(C)NCCCN1c2ccccc2N(C)C(=O)c2cccnc21.Cl [F, 6,11-dihydro-11-(3'-isopropylamino-n-propyl)-6-methyl-5H-pyrido[2,3-b][1,5]benzodiazepin-5one hydrochloride]
ED50 [1]: 0.172 mg/kg | Average duration of effective action in the ED50 range [1]: > 110 min | LD50 at 336 h [2]: 43.5 mg/kg

CCN(CC)CCCN1c2ccccc2C(=O)N(C)c2cccnc21.Cl [S, 5,11-dihydro-11-(3'-diethylamino-n-propyl)-5-methyl-6H-pyrido[2,3-b][1,4]benzodiazepin-6-one hydrochloride]
ED50 [1]: 0.123 mg/kg | Average duration of effective action in the ED50 range [1]: > 110 min

CN1C(=O)c2ccccc2N(CCCN2CCCCC2)c2ncccc21.Cl [V, 5,11-dihydro-5-methyl-11-(3'-piperidino-n-propyl)-6H-pyrido[2,3-b][1,4]benzodiazepin-6-one hydrochloride]
ED50 [1]: 0.18 mg/kg | Average duration of effective action in the ED50 range [1]: > 110 min | LD50 at 336 h [2]: 13.4 mg/kg | ED10 (dose leading to a 10% alteration of the heart rate) (heart rate): 1,100 γ/kg | ED25 (dose leading to a 25% alteration of the heart rate) (heart rate): > 4,000 γ/kg | type of the reaction (heart rate) (heart rate): --

CC(C)N(CCCN1c2ccccc2C(=O)N(C)c2cccnc21)C(C)C.Cl [T, 5,11-dihydro-11-(3'-diisopropylamino-n-propyl)-5-methyl-6H-pyrido[2,3-b][1,4]benzodiazepin-6-one hydrochloride]
ED50 [1]: 0.0165 mg/kg | Average duration of effective action in the ED50 range [1]: 50 min | LD50 at 336 h [2]: 22.2 mg/kg | ED10 (dose leading to a 10% alteration of the heart rate) (heart rate): 1,400 γ/kg | ED25 (dose leading to a 25% alteration of the heart rate) (heart rate): 3,600 γ/kg | type of the reaction (heart rate) (heart rate): --

CN(C)CCCN1c2ccccc2C(=O)N(C)c2cccnc21 [R, 5,11-dihydro-11-(3'-dimethylamino-n-propyl)-5-methyl-6H-pyrido[2,3-b][1,4]benzodiazepin-6-one]
ED50 [1]: 0.19 mg/kg | Average duration of effective action in the ED50 range [1]: > 50 min

CN1C(=O)c2ccccc2N(CCCN2CCCCCC2)c2ncccc21.Cl [W, 5,11-dihydro-11-(3'-hexamethyleneimino-n-propyl)-5-methyl-6H-pyrido[2,3-b][1,4]benzodiazepin-6-one hydrochloride]
ED50 [1]: 0.215 mg/kg | Average duration of effective action in the ED50 range [1]: > 40 min | LD50 at 336 h [2]: 13.4 mg/kg | ED10 (dose leading to a 10% alteration of the heart rate) (heart rate): 1,200 γ/kg | ED25 (dose leading to a 25% alteration of the heart rate) (heart rate): > 4,000 γ/kg | type of the reaction (heart rate) (heart rate): --

CN1C(=O)c2cccnc2N(CCCN2CCCCCC2)c2ccccc21.Cl [N, 6,11-dihydro-11-(3'-hexamethyleneimino-n-propyl)-6-methyl-5H-pyrido[2,3-b][1,5]benzodiazepin-5-one hydrochloride]
ED50 [1]: 0.064 mg/kg | Average duration of effective action in the ED50 range [1]: > 50 min | LD50 at 336 h [2]: 12.7 mg/kg

CCN(CC)CCN1c2ccccc2C(=O)N(C)c2cccnc21.Cl [P, 11-(2'-diethylamino-ethyl)-5,11-dihydro-5-methyl-6H-pyrido[2,3-b][1,4]benzodiazepin-6-one hydrochloride]
ED50 [1]: 0.21 mg/kg | Average duration of effective action in the ED50 range [1]: 110 min

CNCCCN1c2ccccc2N(C)C(=O)c2cccnc21.Cl [D, 6,11-dihydro-6-methyl-11-(3'-methylamino-n-propyl)-5H-pyrido[2,3-b][1,5]benzodiazepin-5-one hydrochloride]
ED50 [1]: 0.155 mg/kg | Average duration of effective action in the ED50 range [1]: 45 min | LD50 at 336 h [2]: 43.2 mg/kg

CN1C(=O)c2cccnc2N(CCN2CCCC2)c2ccccc21.Cl [O, 6,11-dihydro-6-methyl-11-(2'-pyrrolidino-ethyl)-5H-pyrido[2,3-b][1,5]benzodiazepin-5-one hydrochloride]
ED50 [1]: 0.097 mg/kg | Average duration of effective action in the ED50 range [1]: > 30 min | LD50 at 336 h [2]: 11.4 mg/kg | ED10 (dose leading to a 10% alteration of the heart rate) (heart rate): > 4,000 γ/kg | type of the reaction (heart rate) (heart rate): --

CN1C(=O)c2cccnc2N(CCCN2CCCC2)c2ccccc21.Cl [L, 6,11-dihydro-6-methyl-11-(3'-pyrrolidino-n-propyl)-5H-pyrido[2,3-b][1,5]benzodiazepin-5one hydrochloride]
ED50 [1]: 0.043 mg/kg | Average duration of effective action in the ED50 range [1]: 120 min | LD50 at 336 h [2]: 22.7 mg/kg | ED10 (dose leading to a 10% alteration of the heart rate) (heart rate): 1,900 γ/kg | ED25 (dose leading to a 25% alteration of the heart rate) (heart rate): 3,950 γ/kg | type of the reaction (heart rate) (heart rate): --

CC(C)N(CCN1c2ccccc2N(C)C(=O)c2cccnc21)C(C)C.Cl [I, 6,11-dihydro-11-(2'-diisopropylamino-ethyl)-6-methyl-5H-pyrido[2,3-b][1,5]benzodiazepin-5-one hydrochloride]
ED50 [1]: 0.018 mg/kg | Average duration of effective action in the ED50 range [1]: 40 min | LD50 at 336 h [2]: 30.3 mg/kg | ED10 (dose leading to a 10% alteration of the heart rate) (heart rate): 1,300 γ/kg | ED25 (dose leading to a 25% alteration of the heart rate) (heart rate): > 4,000 γ/kg | type of the reaction (heart rate) (heart rate): --

CCN(CC)CCN1c2ccccc2N(C)C(=O)c2cccnc21.Cl [G, 11-(2'-diethylamino-ethyl)-6,11-dihydro-6-methyl-5H-pyrido[2,3-b][1,5]benzodiazepin-5-one hydrochloride]
ED50 [1]: 0.044 mg/kg | Average duration of effective action in the ED50 range [1]: 50 min | LD50 at 336 h [2]: 27.1 mg/kg
